From ChEMBL document CHEMBL5365431 (J Med Chem, 2023)

Assays:
[1] = target: Poly [ADP-ribose] polymerase 1 (Homo sapiens, UniProt P09874); assay: Inhibition of PARP1 (unknown origin) using histone as substrate by ELISA
CAPAN-1 [2] = assay: Antiproliferative activity against human CAPAN-1 cells assessed as cell proliferation inhibition incubated for 7 days by SRB assay; assay type: functional, cell-based
[3] = Antiproliferative activity against human Olaparib-resistant CAPAN-1 cells assessed as cell proliferation inhibition incubated for 7 days by SRB assay; assay type: functional, cell-based
CAPAN-1 [4] = assay: Antiproliferative activity against human Talazoparib-resistant CAPAN-1 cells assessed as cell proliferation inhibition incubated for 7 days by SRB assay; assay type: functional, cell-based
[5] = Stabilization of human His-tagged PARP1-DNA complex assessed as increase in fluorescence signal incubated for 60 mins using NAD+ as substrate by DSB fluorescence polarization assay
[6] = Clearance in Sprague-Dawley rat at 5 mg/kg, iv and measured upto 24 hrs; assay type: ADME, organism-based; settings: in vivo
[7] = Half life in Sprague-Dawley rat at 5 mg/kg, iv and measured upto 24 hrs; assay type: ADME, organism-based; settings: in vivo

Chain of Poly [ADP-ribose] polymerase 1 (P09874 whole entry): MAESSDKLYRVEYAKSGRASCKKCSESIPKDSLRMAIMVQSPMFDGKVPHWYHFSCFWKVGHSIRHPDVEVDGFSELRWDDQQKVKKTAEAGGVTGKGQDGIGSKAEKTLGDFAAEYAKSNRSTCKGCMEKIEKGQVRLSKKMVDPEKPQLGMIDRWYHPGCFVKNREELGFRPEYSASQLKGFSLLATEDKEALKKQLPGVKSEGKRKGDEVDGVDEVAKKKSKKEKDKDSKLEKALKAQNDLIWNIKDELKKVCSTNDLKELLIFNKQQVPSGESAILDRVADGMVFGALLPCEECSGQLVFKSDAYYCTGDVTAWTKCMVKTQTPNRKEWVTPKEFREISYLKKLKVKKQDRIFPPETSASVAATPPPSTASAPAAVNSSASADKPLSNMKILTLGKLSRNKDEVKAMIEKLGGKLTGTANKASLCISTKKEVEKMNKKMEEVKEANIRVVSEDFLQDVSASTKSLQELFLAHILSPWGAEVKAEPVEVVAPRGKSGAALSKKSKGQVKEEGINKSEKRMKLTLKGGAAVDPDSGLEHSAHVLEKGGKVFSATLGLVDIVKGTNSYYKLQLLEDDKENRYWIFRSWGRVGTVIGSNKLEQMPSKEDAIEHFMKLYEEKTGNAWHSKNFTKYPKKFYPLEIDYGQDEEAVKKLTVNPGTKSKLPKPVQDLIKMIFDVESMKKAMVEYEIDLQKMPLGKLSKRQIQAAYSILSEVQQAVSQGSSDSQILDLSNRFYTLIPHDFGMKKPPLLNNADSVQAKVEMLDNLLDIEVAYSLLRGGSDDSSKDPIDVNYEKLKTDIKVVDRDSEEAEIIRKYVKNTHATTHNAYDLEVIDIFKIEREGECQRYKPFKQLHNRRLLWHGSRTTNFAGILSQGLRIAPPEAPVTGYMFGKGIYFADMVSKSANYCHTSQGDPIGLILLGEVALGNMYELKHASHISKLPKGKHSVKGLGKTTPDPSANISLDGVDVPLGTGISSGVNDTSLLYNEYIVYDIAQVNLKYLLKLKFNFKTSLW

| Compound | IC50 [1] [nM] | IC50 (CAPAN-1 [2]) [nM] | IC50 [3] [nM] | IC50 (CAPAN-1 [4]) [nM] | EC50 [5] [nM] | clearance [6] [mL/min/kg] | half-life [7] [min] |
| --- | --- | --- | --- | --- | --- | --- | --- |
| O=C(c1cc(Cc2n[nH]c(=O)c3ccccc23)ccc1F)N1CCn2c(nnc2-c2ccc(C(F)(F)F)o2)C1 | 61.7 | 2.32 | 52.3 | 6.09 |  |  |  |
| CNCc1ccc(-c2nnc3n2CCN(C(=O)c2cc(Cc4n[nH]c(=O)c5ccccc45)ccc2F)C3)o1 | 0.86 | 500 | 6150 | 4600 |  |  |  |
| O=C(c1cc(Cc2n[nH]c(=O)c3ccccc23)ccc1F)N1CCn2c(nnc2-c2ccc(CN3CCCC3)o2)C1 | 1.26 | 161 | 1430 | 905 |  |  |  |
| O=C(c1cc(Cc2n[nH]c(=O)c3ccccc23)ccc1F)N1CCn2c(nnc2-c2ccc(C(F)F)o2)C1 | 23.1 | 6.64 | 71.1 | 70.3 |  |  |  |
| O=C(c1cc(Cc2n[nH]c(=O)c3ccccc23)ccc1F)N1CCn2c(nnc2-c2ccc(CN3CCOCC3)o2)C1 | 1.28 | 290 | 5140 | 2000 |  |  |  |
| O=C(c1cc(Cc2n[nH]c(=O)c3ccccc23)ccc1F)N1CCn2c(nnc2-c2ccc(Cl)o2)C1 | 0.74 | 1.48 | 12.6 | 5.91 |  |  |  |
| O=C(c1cc(Cc2n[nH]c(=O)c3ccccc23)ccc1F)N1CCn2c(nnc2-c2ccc(C3COC3)o2)C1 | 6.19 | 15.5 | 363 | 191 |  |  |  |
| O=C(c1cc(Cc2n[nH]c(=O)c3ccccc23)ccc1F)N1CCn2c(nnc2-c2ccc(CN3CCC3)o2)C1 | 0.96 | 349 | 6490 | 5590 |  |  |  |
| N#Cc1ccc(-c2nnc3n2CCN(C(=O)c2cc(Cc4n[nH]c(=O)c5ccccc45)ccc2F)C3)o1 | 0.23 | 83.8 |  | > 10000 |  |  |  |
| O=C(c1cc(Cc2n[nH]c(=O)c3ccccc23)ccc1F)N1CCn2c(nnc2-c2ccc(C(F)(F)CO)o2)C1 | 5.67 | 15.9 | 137 | 115 |  |  |  |
| CCN(CC)Cc1ccc(-c2nnc3n2CCN(C(=O)c2cc(Cc4n[nH]c(=O)c5ccccc45)ccc2F)C3)o1 | 0.96 | 98.3 | 812 | 701 |  |  |  |
| Cc1cccc(-c2nnc3n2CCN(C(=O)c2cc(Cc4n[nH]c(=O)c5ccccc45)ccc2F)C3)n1 | 13.5 | 6.47 | 42.2 | 68.5 |  |  |  |
| O=C(c1cc(Cc2n[nH]c(=O)c3ccccc23)ccc1F)N1CCn2c(nnc2C2CCOC2)C1 (stereo not given) | 1.91 | 39.1 | 1110 | 517 |  |  |  |
| O=C(c1cc(Cc2n[nH]c(=O)c3ccccc23)ccc1F)N1CCn2c(nnc2-c2ccc(C3CCOCC3)o2)C1 | 2.33 | 3.8 | 78.2 | 78.4 |  |  |  |
| CNCC(F)(F)c1ccc(-c2nnc3n2CCN(C(=O)c2cc(Cc4n[nH]c(=O)c5ccccc45)ccc2F)C3)o1 | 8.15 | 24.3 | 423 | 393 |  |  |  |
| NCC(F)(F)c1ccc(-c2nnc3n2CCN(C(=O)c2cc(Cc4n[nH]c(=O)c5ccccc45)ccc2F)C3)o1 | 8.49 | 122 | 766 | 627 |  |  |  |
| CP(C)(=O)c1ccc(-c2nnc3n2CCN(C(=O)c2cc(Cc4n[nH]c(=O)c5ccccc45)ccc2F)C3)o1 | 12.9 | 3550 | > 10000 | > 10000 |  |  |  |

| Compound | IC50 [1] [nM] | IC50 (CAPAN-1 [2]) [nM] | IC50 [3] [nM] | IC50 (CAPAN-1 [4]) [nM] | EC50 [5] [nM] | clearance [6] [mL/min/kg] | half-life [7] [min] |
| --- | --- | --- | --- | --- | --- | --- | --- |
| Cn1ncnc1[C@H]1c2n[nH]c(=O)c3cc(F)cc(c23)N[C@@H]1c1ccc(F)cc1 [TALAZOPARIB] |  | 7.77 | 686 | 906 |  |  |  |
| Cc1cc(-c2nnc3n2CCN(C(=O)c2cc(Cc4n[nH]c(=O)c5ccccc45)ccc2F)C3)oc1C | < 0.001 | 1.44 | 22.1 | 21 |  |  |  |
| NC(=O)c1cccc2cn(-c3ccc([C@@H]4CCCNC4)cc3)nc12 [NIRAPARIB] |  |  |  |  | 621 |  |  |
| Cc1nc(-c2nnc3n2CCN(C(=O)c2cc(Cc4n[nH]c(=O)c5ccccc45)ccc2F)C3)cs1 | 2.14 | 19 |  | 203 |  |  |  |
| O=C(c1cc(Cc2n[nH]c(=O)c3ccccc23)ccc1F)N1CCn2c(nnc2-c2ccc([N+](=O)[O-])o2)C1 | 47.4 | 5.89 | 178 | 214 |  |  |  |
| O=C(c1cc(Cc2n[nH]c(=O)c3ccccc23)ccc1F)N1CCn2c(nnc2-c2ccno2)C1 | 0.97 | 18.6 | 348 | 249 |  |  |  |
| O=C(c1cc(Cc2n[nH]c(=O)c3ccccc23)ccc1F)N1CCn2c(nnc2-c2ccco2)C1 | 0.26 | 7.39 | 56.4 | 40 |  |  |  |
| CN(C)Cc1ccc(-c2nnc3n2CCN(C(=O)c2cc(Cc4n[nH]c(=O)c5ccccc45)ccc2F)C3)o1 | 1.35 | 151 | 1030 | 941 |  |  |  |
| Cn1cc(-c2nnc3n2CCN(C(=O)c2cc(Cc4n[nH]c(=O)c5ccccc45)ccc2F)C3)cn1 | 7.32 | 351 | 7160 | 6990 |  |  |  |
| O=C(c1cc(Cc2n[nH]c(=O)c3ccccc23)ccc1F)N1CCN(C(=O)C2CC2)CC1 [OLAPARIB] |  |  |  |  | 234 | 34.3 | 31.8 |
| Cc1ccc(-c2nnc3n2CCN(C(=O)c2cc(Cc4n[nH]c(=O)c5ccccc45)ccc2F)C3)o1 | 0.24 | 1.82 | 8.28 | 9.98 |  |  |  |
| O=C(c1cc(Cc2n[nH]c(=O)c3ccccc23)ccc1F)N1CCn2c(nnc2-c2ccoc2)C1 | 0.44 | 8.81 | 73.6 | 42.5 |  |  |  |
| O=C(c1cc(Cc2n[nH]c(=O)c3ccccc23)ccc1F)N1CCn2c(nnc2-c2cc(Br)c(Cl)o2)C1 | < 0.1 | 0.24 | 20.3 | 12.1 |  |  |  |
| O=C(c1cc(Cc2n[nH]c(=O)c3ccccc23)ccc1F)N1CCn2c(nnc2-c2ccc(CN3CCSCC3)o2)C1 | 0.02 | 50.5 | 618 | 404 |  |  |  |
| Cn1ccc(-c2nnc3n2CCN(C(=O)c2cc(Cc4n[nH]c(=O)c5ccccc45)ccc2F)C3)n1 | 6.34 | 30.4 | 135 | 168 |  |  |  |
| O=C(c1cc(Cc2n[nH]c(=O)c3ccccc23)ccc1F)N1CCn2c(nnc2-c2ccc(CN3CCCCC3)o2)C1 | 0.17 | 56.8 | 605 | 393 |  |  |  |
